# Measurements: ChEMBL document CHEMBL4680115, “Discovery of the programmed cell death-1/programmed cell death-ligand 1 interaction inhibitors bearing an indoline scaffold” (Eur J Med Chem, 2020)
# Experiments:
# [1] = biological target: T1, Programmed cell death protein 1/Programmed cell death 1 ligand 1 (Homo sapiens, UniProt Q15116+Q9NZQ7); assay: Inhibition of PD-1/PDL1 interaction (unknown origin) by HTRF assay; type: protein-complex assay
# Jurkat = assay: Cytotoxicity against human Jurkat T cells assessed as reduction in cell viability measured after 72 hrs by CCK-8 assay; type: cell-based; conditions: for Activity: human, jurkat, time 72 hrs; for EC50: Homo sapiens, Jurkat
# [2] = biological target: T1, Programmed cell death protein 1/Programmed cell death 1 ligand 1; assay: Inhibition of PD1/PDL1 protein-protein interaction in human PBMC-derived CD3-positive T cells co-cultured with human Hep3B cells expressing human PDL1/OS-8 assessed as increase in IFNgamma secretion measured after 72 hrs; conditions: dose 0.31-20 µM
# [3] = biological target: T1, Programmed cell death protein 1/Programmed cell death 1 ligand 1; assay: Inhibition of PD1/PDL1 protein-protein interaction in human PBMC-derived CD3-positive T cells co-cultured with human Hep3B cells expressing human PDL1/OS-8 assessed as increase in IFNgamma secretion at 20 uM measured after 72 hrs; design: scale not given: the % may be the effect or the level left
# [4] = biological target: T1, Programmed cell death protein 1/Programmed cell death 1 ligand 1; assay: Inhibition of PD1/PDL1 protein-protein interaction in human PBMC-derived CD3-positive T cells co-cultured with human Hep3B cells expressing human PDL1/OS-8 assessed as increase in IFNgamma secretion at 5 uM measured after 72 hrs relative to BMS-1
# T1 sequence (Q15116 whole entry): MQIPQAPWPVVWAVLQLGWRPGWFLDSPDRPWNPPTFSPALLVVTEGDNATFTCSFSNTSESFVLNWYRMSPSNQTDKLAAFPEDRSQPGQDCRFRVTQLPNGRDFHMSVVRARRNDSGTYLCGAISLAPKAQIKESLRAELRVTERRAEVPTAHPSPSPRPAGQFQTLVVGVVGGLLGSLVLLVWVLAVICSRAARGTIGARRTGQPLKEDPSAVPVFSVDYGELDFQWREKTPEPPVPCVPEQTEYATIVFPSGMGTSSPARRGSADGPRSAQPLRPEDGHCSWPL
# T1 sequence (Q9NZQ7 whole entry): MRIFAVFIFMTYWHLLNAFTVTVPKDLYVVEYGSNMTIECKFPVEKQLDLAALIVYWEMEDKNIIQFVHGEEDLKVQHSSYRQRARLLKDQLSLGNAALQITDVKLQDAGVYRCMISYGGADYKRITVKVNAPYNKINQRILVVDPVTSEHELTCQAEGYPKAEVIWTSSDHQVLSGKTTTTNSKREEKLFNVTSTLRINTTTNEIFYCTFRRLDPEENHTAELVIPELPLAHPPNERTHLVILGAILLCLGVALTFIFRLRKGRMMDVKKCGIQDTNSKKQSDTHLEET
SMILES,IC50 [1],also measured
CC(=O)NCCNCc1ccc2c(c1)CN(c1cccc(-c3ccccc3)c1C)C2=O,> 10000 nM,–
COc1cc(C(=O)N2CCc3c(-c4ccc5c(c4)OCCO5)cccc32)ccc1CNCCO,225 nM,Activity (Jurkat): Toxic
O=C(c1cccc(CNCCO)c1)N1CCc2c(-c3ccccc3)cccc21,344 nM,–
CC(=O)NCCNCc1ccc(C(=O)N2CCc3c(-c4ccccc4)cccc32)c(Cl)c1,> 10000 nM,–
CC(=O)NCCNCc1ccc(C(=O)N2CCc3c(-c4ccccc4)cccc32)cc1OCc1cccc(C#N)c1,1060 nM,–
Cc1c(-c2ccccc2)cccc1N1Cc2cc(CNCCO)ccc2C1=O,7290 nM,–
COc1cc(C(=O)N2CCc3c(-c4ccccc4)cccc32)cc(OC)c1CNCCO,4770 nM,–
CC(=O)NCCNCc1ccc(C(=O)N2CCc3c(-c4ccccc4)cccc32)cc1Cl,589 nM,–
COc1cc(C(=O)N2CCc3c(-c4ccccc4)cccc32)ccc1CNCCO,–,EC50 (Jurkat): 44700 nM; inhibition [2]: Dose-dependent effect; Activity [3]: 610%; fold change (FC) [4]: 3.21
N#Cc1cccc(COc2cc(C(=O)N3CCc4c(-c5ccccc5)cccc43)ccc2CN2CCCC[C@H]2C(=O)O)c1,1330 nM,–
COc1cc(C(=O)N2CCc3c(-c4ccccc4)cccc32)ccc1CNCCNC(C)=O,220 nM,EC50 (Jurkat): 39800 nM; inhibition [2]: Dose-dependent effect
COc1cc(C(=O)N2CCc3c(-c4ccccc4)cccc32)ccc1CN[C@H](CO)C(=O)O,278 nM,–
CC(=O)NCCNCc1ccc(C(=O)N2CCc3c(-c4ccccc4)cccc32)cc1O,602 nM,–
COc1cc(C(=O)N2CCc3c(-c4ccc5c(c4)OCCO5)cccc32)ccc1CNCCNC(C)=O,416 nM,–
CC(=O)NCCNCc1ccc(C(=O)N2CCc3c(-c4ccccc4)cccc32)cc1C,457 nM,–
O=C(c1ccc(CNCCO)cc1)N1CCc2c(-c3ccccc3)cccc21,192 nM,Activity (Jurkat): Toxic

SMILES,IC50 [1],also measured
COc1cc(C(=O)N2CCc3c(-c4ccccc4)cccc32)ccc1CN1CCC[C@H]1CO,620 nM,–
COCCNCc1ccc(C(=O)N2CCc3c(-c4ccccc4)cccc32)cc1OC,350 nM,–
COc1cc(C(=O)N2CCc3c(-c4ccccc4)cccc32)cc(OC)c1CNCCNC(C)=O,7260 nM,–
CC(=O)NCCNCc1ccc2c(c1)C(=O)N(c1cccc(-c3ccccc3)c1C)C2,> 10000 nM,–
Cc1c(-c2ccccc2)cccc1N1Cc2ccc(CNCCO)cc2C1=O,9380 nM,–
O=C(c1ccc(CNCCO)c(Cl)c1)N1CCc2c(-c3ccccc3)cccc21,353 nM,–
CC(=O)NCCNCc1ccc(C(=O)N2CCc3c(-c4ccccc4)cccc32)cc1,622 nM,–
O=C(c1ccc(CNCCO)c(O)c1)N1CCc2c(-c3ccccc3)cccc21,304 nM,–
CC(=O)NCCNCc1cccc(C(=O)N2CCc3c(-c4ccccc4)cccc32)c1,745 nM,–
N#Cc1cccc(COc2cc(C(=O)N3CCc4c(-c5ccccc5)cccc43)ccc2CN[C@H](CO)C(=O)O)c1,3280 nM,–
Cc1cc(C(=O)N2CCc3c(-c4ccccc4)cccc32)ccc1CNCCO,212 nM,Activity (Jurkat): Toxic
COc1cc(C(=O)N2CCc3c(-c4ccccc4)cccc32)ccc1CN1CCC[C@H]1C(=O)O,1890 nM,–
O=C(c1ccc(CNCCO)cc1Cl)N1CCc2c(-c3ccccc3)cccc21,> 10000 nM,–
COc1cc(C(=O)N2CCc3c(-c4ccccc4)cccc32)ccc1CN1CCCC[C@@H]1C(=O)O,1060 nM,–
N#Cc1cccc(COc2cc(C(=O)N3CCc4c(-c5ccccc5)cccc43)ccc2CNCCO)c1,572 nM,–
